Here are results for 10 compounds from patent US10065990B2, “Cyclic peptide compound, and preparation method, pharmaceutical composition and use thereof” (HANGZHOU GUANYU BIO-MEDICAL CO., LTD, priority 2013, dated 2018).

Where two headings read alike, the source gives them in different places.

One assay addresses T1, HDAC8 (Homo sapiens, UniProt Q9BY41).
T1 sequence (Q9BY41 1-377): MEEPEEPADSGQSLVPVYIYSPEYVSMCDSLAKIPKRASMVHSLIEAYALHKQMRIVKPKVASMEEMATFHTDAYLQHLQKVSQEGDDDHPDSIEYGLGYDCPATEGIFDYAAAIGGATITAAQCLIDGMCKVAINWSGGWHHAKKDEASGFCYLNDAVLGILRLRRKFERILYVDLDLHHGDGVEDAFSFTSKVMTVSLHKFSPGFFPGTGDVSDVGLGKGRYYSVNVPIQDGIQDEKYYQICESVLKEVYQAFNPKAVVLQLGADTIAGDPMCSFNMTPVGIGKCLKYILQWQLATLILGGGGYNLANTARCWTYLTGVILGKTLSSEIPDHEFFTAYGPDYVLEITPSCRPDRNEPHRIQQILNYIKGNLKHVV
Description: HDAC biochemical activity measurement (fluorescent substrate deacetylation). The note with it: 37° C. 30 minutes.

The target of another assay is HDAC3 (Homo sapiens, UniProt O15379). The assay is described as above.
The subject of assay [1] is BGC-823 (human gastric cancer cells). The assay can be described thus: MTT cancer cell growth inhibition. Type of assay: cell-based. The note with it: Homo sapiens, BGC-823, 72 h, MTT. The gist of the method:
(§1)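 GI50 values come from viability measured by MTT reduction at 570 nm. Plated overnight at 1500 cells per well, cultures received drug in three parallel wells across 10^−5–10^−10 M final and were incubated 72 h at 37° C. under 5% CO2 before MTT for 4 h.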

The subject of assay [2] is U937 (human leukemia cells). The assay can be described thus: MTT cancer cell growth inhibition. Type of assay: cell-based. Particulars: Homo sapiens, U-937, 72 h, MTT. The procedure, abridged: as §1
Assay [3] deals with HCC827 (human non-small cell lung cancer cells). The assay can be described thus: MTT cancer cell growth inhibition. The format is cell-based. Particulars: Homo sapiens, HCC827, 72 h, MTT, 72 hours incubation, HCC827 cells; read-out: GI50 HCC827. The procedure, abridged:
as §1

Assay [4] concerns KBM-5 (human chronic myelogenous leukemia). Description: MTT cancer cell growth inhibition. Particulars: Homo sapiens, KBM5, 72 h, MTT, 72 hours incubation, KBM-5 cells; read-out: GI50 KBM-5. The format is cell-based. The gist of the method: as §1
Assay [5] concerns Hela (human cervical cancer cells). Description: MTT cancer cell growth inhibition. The format is cell-based. Particulars: Homo sapiens, HeLa, 72 h, MTT. The procedure, abridged:
as §1

For assay [6], the system named is K562 (human leukemia cells). The assay can be described thus: MTT cancer cell growth inhibition. The format is cell-based. Particulars: Homo sapiens, K562, 72 h, MTT, 72 hours incubation, K562 cells; read-out: GI50 K562. The procedure, abridged: as §1
The subject of assay [7] is N-87 (human gastric cancer cells). The assay can be described thus: MTT cancer cell growth inhibition. The note with it: Homo sapiens, 72 h, MTT, 72 hours incubation, N-87 cells; read-out: GI50 N-87. Type of assay: cell-based. The procedure, abridged:
as §1

Assay [8] concerns Bel-7402 (human hepatoma cells). The assay can be described thus: MTT cancer cell growth inhibition. The format is cell-based. Particulars: Homo sapiens, Bel-7402, 72 h, MTT, 72 hours incubation, Bel-7402 cells; read-out: GI50 Bel-7402. The gist of the method:
as §1

The test system of assay [9] is HT1080 (human fibrosarcoma cells). The assay can be described thus: MTT cancer cell growth inhibition. The format is cell-based. Particulars: Homo sapiens, HT-1080, 72 h, MTT. The gist of the method: as §1
Assay [10] deals with DU145 (human prostate cancer cells). Description: MTT cancer cell growth inhibition. The format is cell-based. The note with it: Homo sapiens, DU-145, 72 h, MTT. The procedure, abridged: as §1
Assay [11] relates to H1975 (non-small cell lung adenocarcinoma). The assay can be described thus: MTT cancer cell growth inhibition. The format is cell-based. Particulars: Homo sapiens, NCI-H1975, 72 h, MTT, 72 hours incubation, H1975 cells; read-out: GI50 H1975. The gist of the method:
as §1

The mark [12] stands for this setting: 72 hours incubation, read-out: GI50 BG.
[13] abbreviates: 72 hours incubation, read-out: GI50 U93.
The mark [14] stands for this setting: 72 hours incubation, read-out: GI50 Hela.
[15] abbreviates: 72 hours incubation, read-out: GI50 HT1.
The mark [16] stands for this setting: 72 hours incubation, read-out: GI50 Du1.
Where [17] appears, read: read-out: IC50 HDAC3, HDAC3, 37° C. 30 minutes.
[18] abbreviates: BGC-823 cells, 72 hours incubation, read-out: GI50 BG.
Where [19] appears, read: 72 hours, present invention, read-out: GI50 BGC823, a.
The mark [20] stands for this setting: 72 hours, present invention, read-out: GI50 U937, a.
[21] abbreviates: 72 hours, present invention, read-out: GI50 Hela, a.
Where [22] appears, read: HT1080 cells, 72 hours incubation, read-out: GI50 HT1.
Setting [23] is: 72 hours, present invention, read-out: GI50 HT1080, a.
Where [24] appears, read: 72 hours, present invention, read-out: GI50 Du145, a.

Sequence of HDAC3 (O15379 whole entry, species assumed): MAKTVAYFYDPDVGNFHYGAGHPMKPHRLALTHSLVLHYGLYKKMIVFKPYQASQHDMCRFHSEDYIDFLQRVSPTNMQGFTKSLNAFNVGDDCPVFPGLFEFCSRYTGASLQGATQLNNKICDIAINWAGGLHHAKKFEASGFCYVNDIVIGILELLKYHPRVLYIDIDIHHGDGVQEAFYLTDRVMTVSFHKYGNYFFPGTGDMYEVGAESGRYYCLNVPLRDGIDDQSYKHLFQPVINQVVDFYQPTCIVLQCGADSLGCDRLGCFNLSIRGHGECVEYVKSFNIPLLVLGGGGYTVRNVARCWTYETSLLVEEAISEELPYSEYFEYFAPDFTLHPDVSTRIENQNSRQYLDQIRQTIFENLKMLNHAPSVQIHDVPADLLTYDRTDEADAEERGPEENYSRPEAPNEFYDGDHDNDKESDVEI
Sequence of HDAC3 (Q9Y618 395-489 partner limits assumed, species assumed): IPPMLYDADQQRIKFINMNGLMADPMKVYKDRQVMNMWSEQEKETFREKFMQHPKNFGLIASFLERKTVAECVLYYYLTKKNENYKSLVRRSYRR

`C/C=C1\NC(=O)c2cccc(n2)CNC(=O)C[C@@H](/C=C/CCS)OC(=O)[C@@H](C)NC1=O` [Compound 145]: the figures for the IC50 against HDAC8 and against HDAC3 were 0.029 µM and 0.026 µM, respectively. Further, the GI50 in [1] (setting [12]) amounted to 0.06 µM; in assay [2] (setting [13]), 0.07 µM; in [3] it was 0.078 µM; in [4], 0.008 µM; in assay [5] (setting [14]) it was 0.04 µM; in assay [6], 0.032 µM. Further, the GI50 worked out at 0.031 µM in assay [7]; 0.018 µM in [8]; 0.1 µM in assay [9] (setting [15]); 0.06 µM in [10] (setting [16]); 0.031 µM in [11].
Consider `C=C1NC(=O)c2cccc(n2)CNC(=O)C[C@@H](/C=C/CCSC(=O)CCCCCCC)OC(=O)[C@H](C(C)C)NC1=O` [Compound 244], for which the IC50 was 0.089 µM at HDAC8 and 0.032 µM at HDAC3 (setting [17]). In addition, the GI50 in [1] (setting [18]) was 0.39 µM; in assay [1] (setting [19]), 0.39 µM; in [2] (setting [20]) it was 0.89 µM; in [2] (U937 cells, 72 hours incubation, read-out: GI50 U93) it was 0.89 µM; in assay [3], 0.028 µM; in [4] it was 0.023 µM. Further, the GI50 came out at 0.008 µM in assay [5] (setting [21]); 0.053 µM in assay [6]; 0.083 µM in assay [7]; 0.029 µM in [8]; 0.76 µM in assay [9] (setting [22]); 0.76 µM in assay [9] (setting [23]). Moreover, the GI50 turned out to be 0.95 µM in assay [10] (DU145 cells, 72 hours incubation, read-out: GI50 Du1); 0.95 µM in [10] (setting [24]); 0.073 µM in [11].
For the compound `C/C=C1\NC(=O)c2cccc(n2)CCNC(=O)C[C@@H](/C=C/CCS)OC(=O)[C@H](C(C)C)NC1=O` [Compound 146], the half-inhibitory concentration (IC50) against HDAC8 was determined as 0.043 µM; on HDAC3, 0.028 µM. For the same compound, the 50% growth inhibitory concentration (GI50) amounted to 0.03 µM in assay [2] (setting [13]); 0.045 µM in [3]; 0.033 µM in [4]; 0.04 µM in [5] (setting [14]); 0.043 µM in assay [6]; 0.023 µM in assay [7]. The concentration for 50% growth inhibition (GI50) in assay [8] was found to be 0.035 µM; in [9] (setting [15]) it was 0.08 µM; in [10] (setting [16]), 0.05 µM; in assay [11], 0.073 µM.
With `C/C=C1\NC(=O)c2cccc(n2)CNC(=O)C[C@@H](/C=C/CCSC(=O)CCCCCCC)OC(=O)[C@H](CC(C)C)NC1=O` [Compound 241], the IC50 at HDAC8 was found to be 0.033 µM; against HDAC3 it was 0.062 µM. The GI50 was found to be 0.1 µM in [1] (setting [18]); 0.1 µM in assay [1] (setting [19]); 0.007 µM in assay [2] (setting [20]); 0.034 µM in [3]; 0.071 µM in [4]; 0.011 µM in assay [5] (Hela cells, 72 hours incubation, read-out: GI50 Hela). Also, the GI50 in assay [5] (setting [21]) was found to be 0.011 µM; in assay [6], 0.041 µM; in assay [7] it was 0.057 µM; in [8], 0.047 µM; in assay [9] (setting [22]), 0.03 µM; in assay [9] (setting [23]) it was 0.034 µM. In addition, the figures for the concentration for 50% growth inhibition (GI50) in assay [10] (setting [24]) and in assay [11] were 0.003 µM and 0.051 µM, respectively.
For the compound `C/C=C1\NC(=O)c2cccc(n2)CNC(=O)C[C@@H](/C=C/CCSC(C)=O)OC(=O)[C@H](Cc2cccc3ccccc23)NC1=O` [Compound 17], the IC50 against HDAC8 was found to be 0.081 µM; at HDAC3 (setting [17]), 0.069 µM. In addition, the GI50 in assay [1] (setting [12]) came to 19.7 µM; in assay [2] (setting [13]) it was 20.1 µM; in [3], 0.043 µM; in assay [4] it was 0.081 µM; in assay [5] (setting [14]) it was 11 µM; in assay [6] it was 0.032 µM. Further, the GI50 stood at 0.043 µM in [7]; 0.092 µM in [8]; 0.97 µM in assay [9] (setting [15]); 5.22 µM in assay [10] (setting [16]); 0.042 µM in assay [11].
As for `C/C=C1\NC(=O)c2cccc(n2)CNC(=O)C[C@@H](/C=C/CCSC=O)OC(=O)[C@H](C(C)C)NC1=O` [Compound 8], the IC50 amounted to 0.041 µM on HDAC8 and 0.051 µM against HDAC3. The GI50 in assay [1] (setting [12]) was found to be 0.09 µM; in assay [3], 0.041 µM; in assay [4] it was 0.051 µM; in assay [5] (setting [14]), 0.07 µM; in assay [6], 0.053 µM; in assay [7], 0.034 µM. The figures for the GI50 in assay [8], in assay [9] (setting [15]) and in [11] were 0.094 µM, 0.09 µM and 0.038 µM, respectively.
Take `C/C=C1\NC(=O)c2cccc(n2)CNC(=O)C[C@@H](/C=C/CCSC(=O)CCCC)OC(=O)[C@H](C(C)C)NC1=O` [Compound 4]: the results for the IC50 against HDAC8 and on HDAC3 (setting [17]) were 0.161 µM and 0.152 µM, respectively. Further, the GI50 in assay [1] (setting [12]) came out at 0.06 µM; in assay [3] it was 0.022 µM; in [4], 0.074 µM; in assay [5] (setting [14]), 0.05 µM; in assay [6], 0.061 µM; in [7] it was 0.053 µM. Besides, the GI50 in assay [8] stood at 0.092 µM; in [9] (setting [15]), 0.07 µM; in assay [11] it was 0.031 µM.
With `C/C=C1\NC(=O)c2nccc(n2)CNC(=O)C[C@@H](/C=C/CCSC(C)=O)OC(=O)[C@H](C)NC1=O` [Example 24], the IC50 is 0.063 µM against HDAC8 and 0.043 µM on HDAC3. Also, the GI50 in assay [1] (setting [12]) came to 0.22 µM; in [3], 0.031 µM; in assay [4] it was 0.068 µM; in [5] (setting [14]), 0.5 µM; in [6], 0.037 µM; in assay [7], 0.035 µM. The GI50 in assay [8] is 0.095 µM; in [9] (setting [15]), 0.04 µM; in assay [10] (setting [16]), 0.02 µM; in [11], 0.037 µM.
As to `C/C=C1\NC(=O)c2cccc(n2)CNC(=O)C[C@@H](/C=C/CCSC(C)=O)OC(=O)[C@H](CC)NC1=O` [Compound 10], the half-maximal inhibitory concentration (IC50) worked out at 0.05 µM on HDAC8 and 0.041 µM on HDAC3. For the same compound, the GI50 was determined as 0.09 µM in [1] (setting [12]); 0.026 µM in [3]; 0.061 µM in [4]; 0.07 µM in assay [5] (setting [14]); 0.073 µM in assay [6]; 0.038 µM in assay [7]. The figures for the GI50 in assay [8], in assay [9] (setting [15]) and in [11] were 0.095 µM, 0.08 µM and 0.024 µM, respectively.
Take `C/C=C1\NC(=O)c2cccc(n2)CNC(=O)C[C@@H](/C=C/CCSC(=O)CCC)OC(=O)[C@H](C(C)C)NC1=O` [Compound 5]: the results for the IC50 against HDAC8 and at HDAC3 (setting [17]) were 0.067 µM and 0.049 µM, respectively. Also, the concentration for 50% growth inhibition (GI50) in assay [1] (setting [12]) turned out to be 0.06 µM; in assay [3], 0.055 µM; in assay [4], 0.072 µM; in assay [5] (setting [14]) it was 0.05 µM; in [6], 0.032 µM; in assay [7] it was 0.037 µM. The GI50 is 0.093 µM in assay [8], 0.07 µM in [9] (setting [15]) and 0.023 µM in assay [11].

The term IC50 denotes the concentration that inhibits the measured activity by half. As a reminder, the GI50 is the concentration at which growth is held to half of that of the control.
